The values below come from US20250387481A1, “PRE-TREATED T CELLS FOR USE AS A MEDICAMENT” (STICHTING HET NEDERLANDS KANKER INSTITUUT-ANTONI VAN …, priority 2022, published 2025).

The subject of assay [1] is mouse T cells isolated from the spleen. Kind of assay: T cell immunofluorescence staining of tubulin and F-actin. The assay is classed as cell-based. Particulars: 10 nmol/L, 72 h. The procedure:
Mouse T cells isolated from the spleen and treated with a vehicle control or with docetaxel (10 nmol/L for 72 h) were seeded on glass coverslips pre-coated with poly-D-lysine (Thermo Fisher Cat. No. A3890401) and with αCD3 (eBioscience, Cat. No. 56-0033-80) for 15 min. Next, for immunofluorescence staining of tubulin, cells were extracted for 1 min with pre-warmed (37° C.) extraction buffer composed of MRB80 (80 mmol/L K-PIPES pH 6.8, 4 mmol/L MgCl2, 1 mmol/L EGTA) supplemented with 0.35% Triton X-100 and 0.2% glutaraldehyde, followed by fixation using pre-warmed (37° C.) 4% paraformaldehyde (PFA) in PBS for 10 min. Cells were washed with PBS and permeabilized with 0.2% Triton X-100 in PBS for 5 min. […]
For fluorescence intensity quantifications, samples were imaged on a spinning disk confocal setup consisting of an inverted research microscope Nikon Eclipse Ti-E (Nikon) equipped with the perfect focus system (Nikon), Plan Apo VC 100×N.A. 1.40 oil objective (Nikon), spinning disk Yokogawa CSU-X1-A1 with 405-491-561-642 quad-band mirror (Yokogawa). […]
All images were processed using ImageJ. For quantification of fluorescence intensity, sum projections were made for each z-stack using ImageJ. Next, the raw integrated density of a square box around individual cells of interest per image, as well as an empty region in the field of view, were calculated using ImageJ. […]

The test system of assay [2] is MMTV-PyMT organoids. Briefly: MTT measurement of MMTV-PyMT organoid survival upon increasing doses of docetaxel. It is filed as cell-based. Particulars: Mus musculus, docetaxel for 72 h. As to the method:
Breast cancer organoids were derived from K14-Cre; Brca1fl/fl; p53fl/fl mouse mammary tumors (KB1P (Kester, L., et al. Clin Cancer Res, 2022.)) and from MMTV-PyMT (Duarte, A. A., et al. Nat Methods, 2018. 15(2): p. 134-140) mouse mammary tumors. Both lines were cultured in 50 μl drops of Cultrex PathClear Reduced Growth Factor Basement Membrane Extract Type 2 (BME, Amsbio, 3533-005-02). KB1P organoids were cultured in Advanced Dulbecco's modified Eagle's medium (adDMEM/F12; Thermo Fisher Scientific. Cat. No. 12634-010) containing Hepes (10 mmol/L; Thermo Fisher Scientific, Cat. No. 15630-056), Penicillin/streptomycin (10,000 U/ml; Thermo Fisher Scientific, Cat. No. 15140-122), B27 (2% Thermo Fisher Scientific, Cat. No. 17504-044), N-acetylcysteine (1.25 mM; Sigma-Aldrich, Cat. No. A9165) and fibroblast growth factor (FGF, 12 ng/ml; Invitrogen, Cat. No. PHG0261). MMTV-PyMT organoids were cultured in DMEM/F12 GlutaMAX (Gibco, Cat. No 10565018) supplemented with 10 mmol/L Hepes (Gibco, Cat. No 15630106), Penicillin/streptomycin (10,000 U/ml; Thermo Fisher Scientific, Cat. No. 15140-122), B27 (2% Thermo Fisher Scientific, Cat. No. 17504-044) and fibroblast growth factor (FGF, 12 ng/ml; Invitrogen, Cat. No. PHG0261). […]
Following co-culture, medium was removed, and cultures were washed in PBS to remove T cells. […] Plates were read with a 565 nm wavelength.

By IC50 is commonly meant the midpoint of a concentration-inhibition curve.

On to `CC(=O)O[C@@]12CO[C@@H]1C[C@H](O)[C@@]1(C)C(=O)[C@H](O)C3=C(C)[C@@H](OC(=O)[C@H](O)[C@@H](NC(=O)OC(C)(C)C)c4ccccc4)C[C@@](O)([C@@H](OC(=O)c4ccccc4)[C@H]21)C3(C)C` [docetaxel], for which the microtubule density entry in assay [1] is listed as “increased microtubule density”. This compound gave an IC50 in assay [2] of 130 nM.
